This is an account of results in patent publication US20240261291A1, “Ophthalmic Compositions and/or Methods for Presbyopia, Mydriasis and/or Ocular Discomfort Management” (Brien Holden Vision Institute Limited, priority 2021, published 2024).

Structures are written as SMILES.

Experiment [1] has as its system pupillary diameter of the eye. The experiment can be described thus: Pupillary diameter over 2 hours after a single eye drop of caffeine 2 wt. % in water, 5 individuals (Grand Seiko autorefractor). It counts as in vivo, human. The following applies: for average decrease in pupillary diameter compared to baseline: 5 individuals; for maximal decrease in pupillary diameter: largest among individuals. How it is done: FIG. 1 is a schematic of the pupil diameter of eyes prescribed with caffeine 2% over time.
FIG. 1 illustrates the baseline pupillary diameter and the pupillary diameter over 2 hours in a group of 5 individuals (3 males and 2 females, age ranging from 31 to 45 yrs) prescribed with an ophthalmic composition comprising caffeine. A topical ophthalmic composition comprising caffeine 2 wt. % in water was instilled (as a single eye drop in the range of from 0.025 mL to 0.075 ml, such as an average single drop size of about 0.05 mL) in one eye of each of the individuals. Pupillary diameter at baseline and at subsequent time points was captured using a Grand Seiko autorefractor for 11 secs and data summarized. The room illumination was standardized at 150 to 200 lux. As observed from FIG. 1, there was a decrease in pupillary diameter post instillation. On average, compared to baseline, the decrease in pupillary diameter at 30 mins and 1 hr post instillation was 0.3 mm and was approximately 0.2 mm at 2 hrs. There was some variation between the various individuals, however the maximal […] in pupillary diameter at 30 mins was 0.4 mm, was approximately 0.8 mm at 1 hr and was approximately 0.6 mm at 2 hrs. Such an ophthalmic composition, as disclosed herein, can be used according to the methods provided herein to reduce the pupillary diameter of a treated eye of a subject and be effective in treating or managing symptoms related to presbyopia and/or mydriasis and/or eyes with disorders requiring light modulation such as one or more of vision disturbances.

For experiment [2], the system named is pupillary diameter of the eye. As to the kind of experiment: Reversal of Tropicamide 1% mydriasis by caffeine 2.0 w/v % in saline, left eye only, person (Grand Seiko autorefractor). It counts as in vivo, human. To be noted: for Pupillary diameter Left eye: given 50 mins after Tropicamide 1%. How it is done:
FIG. 4 illustrates that difference in pupil diameter in the right and left eyes of an individual, wherein Tropicamide 1% was instilled in both eyes and approximately 50 minutes later, an ophthalmic composition comprising Caffeine at 2 w/v. % was instilled in the left eye only.
The following Table 3 illustrates the pupil diameter of a person. An aqueous solution of 1% Tropicamide was instilled in both eyes. Pupillary diameter was measured over a 15 second interval with a Grand Seiko autorefractor with the individual fixating at an object positioned 1 meter away. Pupillary diameter was dynamically sampled at multiple time points over the 15 second interval. Pupillary diameters for both eyes were measured prior to instillation (baseline), soon after instillation of 1% Tropicamide and then 20 minutes and 50 minutes post instillation. […] At this time point, a single drop (0.05 mL) of 2.0 w/v % Caffeine in Saline (0.9 wt. % NaCl) (composition 1) was instilled in the left eye only. The individual was monitored 30 minutes, 60 minutes, 2 hrs, 4 hrs and 6.5 hrs from instillation of Caffeine.
FIG. 4 illustrates the difference in pupillary diameter between the right and left eyes 4 hrs from the instillation of Tropicamide 1% in both eyes and […] from instillation of Caffeine 2 w/v % in the left eye.

As for `Cn1c(=O)c2c(ncn2C)n(C)c1=O` [Caffeine, caffeine (1,7 methylxanthine)], the “average decrease in pupillary diameter compared to baseline” value in experiment [1] (30 mins post instillation, 150 to 200 lux) is recorded as 0.3 mm; in experiment [1] (1 hr post instillation), 0.3 mm; in experiment [1] (2 hrs post instillation) it was “approximately 0.2 mm”. In addition, the figures for the “maximal decrease in pupillary diameter” value in experiment [1] (30 mins), in experiment [1] (1 hr) and in experiment [1] (2 hrs) were 0.4 mm, “approximately 0.8 mm” and “approximately 0.6 mm”, respectively. In addition, the “Difference in pupillary diameter (Right − Left)” value in experiment [2] (30 mins post instillation of Caffeine 2 w/v % in left eye, both eyes Tropicamide 1%) is given as 0.5 mm; in experiment [2] (60 mins post instillation of Caffeine 2 w/v % in left eye, both eyes Tropicamide 1%), 0.7 mm; in experiment [2] (2 hrs post instillation of Caffeine 2 w/v % in left eye, both eyes Tropicamide 1%) it was 0.8 mm. Moreover, the “difference between the pupils” value in experiment [2] (at 1 and 2 hours following instillation of Caffeine in the left eye, both eyes Tropicamide 1%) is “approximately 0.8 mm”. Also, in experiment [2] (left eye (Tropicamide 1% then Caffeine 2 w/v %), 6.5 hrs from the baseline visit, returned to normal), the “left eye pupil diameter” value is given as 3.8 mm. Besides, the “Pupillary diameter Left eye” value is recorded as 6.8 mm in experiment [2] (left eye, 30 mins post instillation of Caffeine 2 w/v %); 6.5 mm in experiment [2] (left eye, 60 mins post instillation of Caffeine 2 w/v %); 6.3 mm in experiment [2] (left eye, 2 hrs post instillation of Caffeine 2 w/v %). Also, the “left eye pupillary diameter” value in experiment [2] (left eye, 3 hrs from instillation of Caffeine 2 w/v %, 4 hrs from Tropicamide 1% (FIG. 4)) is 5.9 mm.
